# Experimental data as given in PubChem BioAssay (NCI).
#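 Cells were grown in 96-well plates and exposed to each compound for 48 hours at five concentrations; endpoints were interpolated linearly between bracketing concentrations, or set to the highest concentration if not reached. GI50: concentration for 50% inhibition of growth. TGI is the concentration that stops growth completely.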
# Key:
# Test in all cases: inhibition of tumour cell growth, NCI panel, 48 h
# [1] = system: 786-0 renal
# [2] = system: A498 renal
# [3] = system: A549 NSCLC
# [4] = system: ACHN renal
# [5] = system: BT-549 breast
# [6] = system: CAKI-1 renal
# [7] = system: CCRF-CEM leukemia
# [8] = system: COLO 205 colon
# [9] = system: DU-145 prostate
# [10] = system: EKVX NSCLC
# [11] = system: HCC-2998 colon
# [12] = system: HCT-116 colon
# [13] = system: HCT-15 colon
# [14] = system: HL-60(TB) leukemia
# [15] = system: HOP-62 NSCLC
# [16] = system: HOP-92 NSCLC
# [17] = system: HS 578T breast
# [18] = system: HT29 colon
# [19] = system: IGROV1 ovarian
# [20] = system: K-562 leukemia
# [21] = system: KM12 colon
# [22] = system: LOX IMVI melanoma
# [23] = system: M14 melanoma
# [24] = system: MALME-3M melanoma
# [25] = system: MCF7 breast
# [26] = system: MDA-MB-231 breast
# [27] = system: MDA-MB-435
# [28] = system: MDA-MB-468 breast
# [29] = system: MOLT-4 leukemia
# [30] = system: NCI-H226 lung
# [31] = system: NCI-H23 lung
# [32] = system: NCI-H460 lung
# [33] = system: NCI-H522 lung
# [34] = system: NCI/ADR-RES ovarian
# [35] = system: OVCAR-3 ovarian
# [36] = system: OVCAR-4 ovarian
# [37] = system: OVCAR-5 ovarian
# [38] = system: OVCAR-8 ovarian
# [39] = system: PC-3 prostate
# [40] = system: RPMI-8226 leukemia
# [41] = system: RXF 393 renal
# [42] = system: SF-268 CNS
# [43] = system: SF-295 CNS
# [44] = system: SF-539 CNS
# [45] = system: SK-MEL-2 melanoma
# [46] = system: SK-MEL-28 melanoma
# [47] = system: SK-MEL-5 melanoma
# [48] = system: SK-OV-3 ovarian
# [49] = system: SN12C renal
# [50] = system: SNB-19 CNS
# [51] = system: SNB-75 CNS
# [52] = system: SR leukemia
# [53] = system: SW-620 colon
# [54] = system: T-47D breast
# [55] = system: TK-10 renal
# [56] = system: U251 CNS
# [57] = system: UACC-257 melanoma
# [58] = system: UACC-62 melanoma
# [59] = system: UO-31 renal
structure (smiles),measurement,setting,value
CCOc1ccc(-c2cc(-c3cc(C(C)C)c(O)cc3C)nn2-c2ccc(S(N)(=O)=O)cc2)cc1,GI50,[1],11.2 µM
same,TGI,[1],23.3 µM
same,GI50,[2],13.4 µM
same,TGI,[2],26.4 µM
same,GI50,[3],4.62 µM
same,TGI,[3],19.2 µM
same,GI50,[4],10.5 µM
same,TGI,[4],22.3 µM
same,GI50,[5],2.93 µM
same,TGI,[5],11.4 µM
same,GI50,[6],4.92 µM
same,TGI,[6],18 µM
same,GI50,[7],2.86 µM
same,TGI,[7],13.8 µM
same,GI50,[8],17.1 µM
same,TGI,[8],31.7 µM
same,GI50,[9],7.07 µM
same,TGI,[9],19.9 µM
same,GI50,[10],3.96 µM
same,TGI,[10],15.2 µM
same,GI50,[11],3.87 µM
same,TGI,[11],12.7 µM
same,GI50,[12],5.46 µM
same,TGI,[12],18.2 µM
same,GI50,[13],3.61 µM
same,TGI,[13],14.4 µM
same,GI50,[14],4.81 µM
same,TGI,[14],37.3 µM
same,GI50,[15],10.4 µM
same,TGI,[15],23.4 µM
same,GI50,[16],2.82 µM
same,TGI,[16],13 µM
same,GI50,[17],5.8 µM
same,TGI,[17],25.9 µM
same,GI50,[18],15.4 µM
same,TGI,[18],29.5 µM
same,GI50,[19],12.1 µM
same,TGI,[19],24.9 µM
same,GI50,[20],3.38 µM
same,TGI,[20],> 100 µM
same,GI50,[21],3.47 µM
same,TGI,[21],13.4 µM
same,GI50,[22],5.65 µM
same,TGI,[22],18.3 µM
same,GI50,[23],9.86 µM
same,TGI,[23],22.4 µM
same,GI50,[24],11 µM
same,TGI,[24],23.4 µM
same,GI50,[25],4.88 µM
same,TGI,[25],19.2 µM
same,GI50,[26],6.78 µM
same,TGI,[26],20.3 µM
same,GI50,[27],1.91 µM
same,TGI,[27],4.44 µM
same,GI50,[28],2.39 µM
same,TGI,[28],6.76 µM
same,GI50,[29],4.02 µM
same,TGI,[29],17.6 µM
same,GI50,[30],15.7 µM
same,TGI,[30],37 µM
same,GI50,[31],6.86 µM
same,TGI,[31],20.5 µM
same,GI50,[32],5.21 µM
same,TGI,[32],18.1 µM
same,GI50,[33],2.75 µM
same,TGI,[33],11 µM
same,GI50,[34],3.15 µM
same,TGI,[34],12.2 µM
same,GI50,[35],4.55 µM
same,TGI,[35],15.3 µM
same,GI50,[36],7.29 µM
same,TGI,[36],21 µM
same,GI50,[37],15.7 µM
same,TGI,[37],29.2 µM
same,GI50,[38],7.24 µM
same,TGI,[38],21.6 µM
same,GI50,[39],5.47 µM
same,TGI,[39],19.6 µM
same,GI50,[40],4.29 µM
same,TGI,[40],22.2 µM
same,GI50,[41],4.45 µM
same,TGI,[41],17.2 µM
same,GI50,[42],7.22 µM
same,TGI,[42],21.4 µM
same,GI50,[43],9.37 µM
same,TGI,[43],21.3 µM
same,GI50,[44],5.51 µM
same,TGI,[44],17.7 µM
same,GI50,[45],7.28 µM
same,TGI,[45],20.8 µM
same,GI50,[46],11.7 µM
same,TGI,[46],24 µM
same,GI50,[47],5.3 µM
same,TGI,[47],17.8 µM
same,GI50,[48],10.7 µM
same,TGI,[48],22.7 µM
same,GI50,[49],6.66 µM
same,TGI,[49],20.1 µM
same,GI50,[50],12.3 µM
same,TGI,[50],24.8 µM
same,GI50,[51],2.48 µM
same,TGI,[51],13 µM
same,GI50,[52],1.8 µM
same,TGI,[52],43.8 µM
same,GI50,[53],5.94 µM
same,TGI,[53],20 µM
same,GI50,[54],3.71 µM
same,TGI,[54],17 µM
same,GI50,[55],15.6 µM
same,TGI,[55],29.1 µM
same,GI50,[56],5.29 µM
same,TGI,[56],18.6 µM
same,GI50,[57],10.4 µM
same,TGI,[57],22.5 µM
same,GI50,[58],7.25 µM
same,TGI,[58],20.4 µM
same,GI50,[59],5.46 µM
same,TGI,[59],18.3 µM
